Experimental data from patent US10000451B2, “MAP4K4 (HGK) inhibitors” (SRI INTERNATIONAL, priority 2015, dated 2018).
Like-named read-outs stand apart in the source and are kept apart here.

Experiments:
Experiment in all cases: Activity against cancer cell lines
Assay type in all cases: cell-based
UO31 = settings: Homo sapiens, UO-31
Excerpt: (§1) Exemplary data is shown below.

MDAMB435 = settings: Homo sapiens, MDA-MB-435
Excerpt: as §1

MCF7 = settings: Homo sapiens
Excerpt: as §1

CAKI1 = settings: Homo sapiens, CAKI-1
Excerpt: as §1

ACHN = settings: Homo sapiens
Excerpt: as §1

OVCAR4 = tested on: OVCAR4
Excerpt: as §1

RXF393 = settings: Homo sapiens, RXF 393
Excerpt: as §1

NCIH522 = settings: Homo sapiens, NCI-H522
Excerpt: as §1

M14 = settings: Homo sapiens
Excerpt: as §1

SNB75 = tested on: SNB75
Excerpt: as §1

ADRRES = tested on: ADRRES
Excerpt: as §1

SF539 = settings: Homo sapiens, SF-539
Excerpt: as §1

SF295 = settings: Homo sapiens, SF-295
Excerpt: as §1

LOXIMVI = settings: Homo sapiens, LOX IMVI
Excerpt: as §1

HL60 = tested on: HL60
Excerpt: as §1

A498 = settings: Homo sapiens
Excerpt: as §1

SKMEL2 = settings: Homo sapiens, SK-MEL-2
Excerpt: as §1

CCRFCEM = tested on: CCRFCEM
Excerpt: as §1

SKMEL5 = settings: Homo sapiens, SK-MEL-5
Excerpt: as §1

MOLT4 = settings: Homo sapiens, MOLT-4
Excerpt: as §1

HCT15 = settings: Homo sapiens, HCT-15
Excerpt: as §1

## COc1cccc2c1C(=O)c1c(O)c3c(c(O)c1C2=O)C[C@@](O)(C(=O)CO)C[C@@H]3O[C@H]1C[C@H](N)[C@H](O)[C@H](C)O1 [Doxorubicin, reference compound]
UO31
  IC50: 2500 nM
MDAMB435
  IC50: 970 nM
MCF7
  IC50: 410 nM
CAKI1
  IC50: 180 nM
ACHN
  IC50: 540 nM
OVCAR4; Homo sapiens, OVCAR-4, OVCAR4
  IC50: 1900 nM
OVCAR4; OVCAR4
  IC50: 1500 nM
RXF393
  IC50: 1000 nM
NCIH522
  IC50: 500 nM
M14
  IC50: 810 nM
SNB75; Homo sapiens, SNB-75, SNB75
  IC50: 610 nM
SNB75; SNB75
  IC50: 580 nM
ADRRES
  IC50: 11000 nM
SF539
  IC50: 390 nM
SF295
  IC50: 430 nM
LOXIMVI
  IC50: 260 nM
HL60; HL60
  IC50: 130 nM
HL60; Homo sapiens, HL-60, HL60
  IC50: 150 nM
A498
  IC50: 650 nM
SKMEL2
  IC50: 680 nM
CCRFCEM
  IC50: 87 nM
CCRFCEM; Homo sapiens, CCRF-CEM
  IC50: 47 nM
SKMEL5
  IC50: 390 nM
MOLT4
  IC50: 75 nM
HCT15
  IC50: 1300 nM
